Data on one molecule can be found in publication PMC6750704 (Journal of medicinal chemistry, 2019).

For the assay, the system named is paradoxical MEK/ERK pathway activation in NRAS Q61K Sbcl2 melanoma cells. As to the kind of experiment: Vemurafenib induced paradoxical MEK/ERK activation, Western blotting. It counts as cell-based, human. The following applies: 1 μM, control peptide treated Sbcl2 cells. Background: In western blotting, separated proteins are transferred to a membrane and probed.

For `CCCS(=O)(=O)Nc1ccc(F)c(C(=O)c2c[nH]c3ncc(-c4ccc(Cl)cc4)cc23)c1F` [vemurafenib], the “effect on pMEK and pERK levels” value is on record as “induces paradoxical MEK/ERK pathway activation”.
